Measured values published in patent US7662593B2, “Activation method of protein derived from extremely thermophilic bacterium in nucleic acid amplification reaction and use thereof” (Aisin Seiki Kabushiki Kaisha, priority 2004, dated 2010).

Columns and labels:
Type in all cases: biochemical
T. th. RecA [1] = target: T1, T. th. RecA (Thermus thermophilus, UniProt Q5SHB2); test: PCR with rTaq-HS polymerase: influence of reaction solution composition on T. th. RecA performance, with and without ATP (Example 1); settings: 400 μM ATP plus 0.4 μg T. th. RecA, rTaq buffer, 35 cycles, human genome DNA, Primer Sets 1-6; compared with T. th. RecA only
T1 construct: made in house
T1 sequence (Q5SHB2 1-340): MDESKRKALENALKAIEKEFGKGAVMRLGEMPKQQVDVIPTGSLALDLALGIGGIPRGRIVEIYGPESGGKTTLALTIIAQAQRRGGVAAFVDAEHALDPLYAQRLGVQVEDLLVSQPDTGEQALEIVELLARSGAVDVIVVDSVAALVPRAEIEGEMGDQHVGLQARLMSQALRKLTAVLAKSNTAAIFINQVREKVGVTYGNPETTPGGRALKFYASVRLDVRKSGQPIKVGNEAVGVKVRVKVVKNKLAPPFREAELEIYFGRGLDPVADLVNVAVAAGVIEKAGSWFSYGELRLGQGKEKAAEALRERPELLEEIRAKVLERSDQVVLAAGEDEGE
Experimental: The PCR amplification reaction was carried out using a human genome DNA as a template and Primer Set 1. Four kinds of PCR reaction solution were prepared as shown below. Specifically, Reaction solution A was prepared by using 1×rTaq buffer (manufactured by Takara Bio Inc.) as a buffer solution, and Reaction solution B was prepared by adding T. th. RecA further to Reaction solution A. Reaction solution C was prepared by using Taq buffer (manufactured by Takara Bio Inc.) as a buffer solution and adding T. th. RecA. Reaction solution D was prepared by adding T. th. RecA and ATP further to Reaction solution A. The composition of each of the reaction solutions is as shown below. As a DNA polymerase, an rTaq-HS polymerase (manufactured by Takara Bio Inc.) was used.
The above reaction solutions were thermally denatured at 94° C. for 30 seconds. Thereafter, the amplification reaction was carried out with 35 cycles (1 cycle: at 94° C. for 15 seconds, at 55° C. for 30 seconds and at 72° C. for 90 seconds). Thereafter, the amplification reaction was completed by the final reaction cycle at 72° C. for 3 minutes and at 4° C. for 10 minutes. After the amplification, 10 μl of the reaction solution was subjected to electrophoresis with 1.2% agarose gel. After the electrophoresis, the bands were visualized by staining the gel with ethidium bromide, and then the electrophoresis gel was photographed. […]

T. th. RecA [2] = target: T1, T. th. RecA; test: PCR with Ex Taq-HS polymerase with T. th. RecA and ATP (Example 3); settings: 400 μM ATP plus 0.4 μg T. th. RecA, 36 cycles, Primer Sets 1-6 and 8, compared with no addition
Experimental: The PCR amplification reaction was carried out using a human genome DNA as a template and Primer Set 1. Two kinds of PCR reaction solutions were prepared as shown below. Specifically, Reaction solution G was prepared with a composition of a general PCR reaction solution without adding any of T. th. RecA and ATP (Control). Reaction solution H was prepared by adding T. th. RecA and ATP further to Reaction solution G. The composition of each of the reaction solutions is as shown below. As a DNA polymerase, an Ex Taq-HS polymerase was used.
(§1) The above reaction solutions were thermally denatured at 94° C. for 30 seconds. Thereafter, the amplification reaction was carried out with 36 cycles (1 cycle: at 94° C. for 15 seconds, at 55° C. for 30 seconds and at 72° C. for 90 seconds). Thereafter, the amplification reaction was completed by the final reaction cycle at 72° C. for 3 minutes and at 4° C. for 10 minutes. After the amplification, 10 μl of the reaction solution was subjected to electrophoresis with 1.2% agarose gel. After the electrophoresis, the bands were visualized by staining the gel with ethidium bromide, and then the electrophoresis gel was photographed. Furthermore, the same experiment was conducted using Primer Sets 2, 3, 4, 5, 6 and 8.

T. th. RecA [3] = target: T1, T. th. RecA; test: PCR and multiplex PCR with T. th. DNA polymerase, T. th. RecA and ATP (Example 8); settings: 0.4 mM ATP plus 0.4 μg T. th. RecA
Experimental: The PCR amplification reaction by the T. th. DNA polymerase was carried out using a human genome DNA as a template. The primer sets used herein were Primer Sets 22, 23, 24, 25, 26, 27, 28, 29, 30, 31, 32, 33, 1 and 2. In addition, multiplex PCR was carried out in which these primer sets were added in one reaction system and amplified. Two kinds of PCR reaction solution were prepared as shown below. Specifically, Reaction solution W was prepared by adding T. th. RecA and ATP. Reaction solution X was prepared similarly to Reaction solution W except that T. th. RecA and ATP were not added but a T. th. RecA storage buffer was added instead.
The above reaction solutions were thermally denatured at 92° C. for 30 seconds. Thereafter, the amplification reaction was carried out with 35 cycles (1 cycle: at 94° C. for 15 seconds, at 55° C. for 30 seconds and at 68° C. for 2 minutes). Thereafter, the amplification reaction was completed by the final reaction cycle at 68° C. for 3 minutes and at 4° C. for 10 minutes. After the amplification, 3 μl of the reaction solution was subjected to electrophoresis with 12.5% acrylamide gel. After the electrophoresis, the bands were visualized by staining the gel with cyber green, and then the electrophoresis gel was photographed.

T. th. RecA [4] = target: T1, T. th. RecA; test: PCR with rTaq-HS polymerase with various nucleotide 5'-triphosphates and T. th. RecA (Example 4); settings: 36 cycles; for non-specific amplification in PCR (agarose gel): rTaq buffer
Experimental: The PCR amplification reaction was carried out using a human genome DNA as a template and Primer Set 1. Seven kinds of PCR reaction solution were prepared as shown below. Specifically, Reaction solution I was a general PCR reaction solution and prepared without adding any of T. th. RecA and nucleotide 5′-triphosphate (Control). Reaction solution J was prepared by adding T. th. RecA to Reaction solution I. Reaction solutions K, L, M and N were prepared by adding GTP, ATP, UTP and CTP to Reaction solution J, respectively. Reaction solution O was prepared by adding only ATP to Reaction solution I without adding T. th. RecA. The composition of each of the reaction solutions is as shown below. As a DNA polymerase, an rTaq-HS polymerase was used.
as §1

T. th. RecA [5] = target: T1, T. th. RecA; test: PCR with ExTaq-HS polymerase, effects of primer length, Primer Sets 10-15 (Example 5); settings: 0.4 mM ATP plus 0.4 μg T. th. RecA, 35 cycles, primer base length 20 to 45 (Primer Sets 10-15)
Experimental: The PCR amplification reaction was carried out using a human genome DNA as a template and the primer sets of various lengths. The primer sets used here were Primer Sets 10, 11, 12, 13, 14 and 15 with the base length of 20, 25, 30, 35, 40 and 45, respectively. Two kinds of PCR reaction solution were prepared as shown below. Specifically, Reaction solution P was prepared by adding T. th. RecA and ATP. Reaction solution Q was prepared similarly to Reaction solution P except that ATP was not added. The composition of each of the reaction solutions is as shown below. As a DNA polymerase, an ExTaq-HS polymerase (manufactured by Takara Bio Inc.) was used.
The above reaction solutions were thermally denatured at 94° C. for 30 seconds. Thereafter, the amplification reaction was carried out with 35 cycles (1 cycle: at 94° C. for 15 seconds, at 55° C. for 30 seconds and at 72° C. for 90 seconds). Thereafter, the amplification reaction was completed by the final reaction cycle at 72° C. for 3 minutes and at 4° C. for 10 minutes. After the amplification, 10 μl of the reaction solution was subjected to electrophoresis with 1.2% agarose gel. After the electrophoresis, the bands were visualized by staining the gel with ethidium bromide, and then the electrophoresis gel was photographed.

T. th. RecA [6] = target: T1, T. th. RecA; test: PCR with T. th. DNA polymerase, combination of T. th. RecA with ATP (Example 7); settings: 35 cycles
Experimental: PCR amplification by the T. th. DNA polymerase was carried out using a human genome DNA as a template and Primer Set 1. Five kinds of PCR reaction solution were prepared as shown below. Specifically, Reaction solution R was prepared by adding T. th. RecA and ATP. Reaction solution S was prepared similarly to Reaction solution R except that ATP was not added. Reaction solution T was prepared similarly to Reaction solution R except that ATP and T. th. […] Reaction solution U was prepared similarly to Reaction solution R except that T. th. RecA and ATP were not added but a T. th. RecA storage buffer was added instead. Further, Reaction solution V was prepared similarly to Reaction solution R except that T. th. RecA was not added. The composition of each of the reaction solutions is as shown below.
The above reaction solutions were thermally denatured at 92° C. for 30 seconds. Then, amplification reaction was carried out with 35 cycles (1 cycle: at 94° C. for 15 seconds, at 55° C. for 30 seconds and at 68° C. for 90 seconds). Thereafter, the amplification reaction was completed by the final reaction cycle at 68° C. for 3 minutes and at 4° C. for 10 minutes. After the amplification, 10 μl of the reaction solution was subjected to electrophoresis with 1.2% agarose gel. […]

T. th. RecA [7] = target: T1, T. th. RecA; test: PCR with ExTaq-HS polymerase, effects of primer length, Primer Sets 16-21 (Example 6); settings: 0.4 mM ATP plus 0.4 μg T. th. RecA, primer base length 20 to 45 (Primer Sets 16-21)
Experimental: The PCR amplification reaction was carried out using a human genome DNA as a template and the primer sets of various lengths. The primer sets used here were Primer Sets 16, 17, 18, 19, 20 and 21 with the base lengths of 20, 25, 30, 35, 40 and 45. The same PCR reaction solutions as in Example 5 were used. Specifically, Reaction solution P was prepared by adding T. th. RecA and ATP. Reaction solution Q was prepared similarly to Reaction solution P except that ATP was not added. As a DNA polymerase, an ExTaq-HS polymerase (manufactured by Takara Bio Inc.) was used. Then, the PCR reaction was carried out under the same conditions as in Example 5, then electrophoresis and staining of the electrophoresed gel were conducted, and then photographing was conducted according to the same procedures as in Example 5.

T. th. RecA [8] = target: T1, T. th. RecA; test: PCR with rTaq-HS polymerase over 28, 32 or 36 cycles: decrease in T. th. RecA performance, with and without ATP (Example 2); settings: 400 μM ATP plus 0.4 μg T. th. RecA, Taq buffer, 28, 32 or 36 cycles, Primer Sets 7-9; compared with T. th. RecA only
Experimental: The PCR amplification reaction was carried out using a human genome DNA as a template and Primer Set 7. Two kinds of PCR reaction solution were prepared as shown below. Specifically, Reaction solution E was prepared by adding T. th. RecA only. Reaction solution F was prepared by adding ATP in addition to T. th. RecA. The composition of each of the reaction solutions is as shown below. As a DNA polymerase, an rTaq-HS polymerase was used.
as §1, with “conducted in 28, 32 or” for “carried out with”, “seconds). And” for “seconds).”, “8” for “2, 3, 4, 5, 6”, “9.” for “8.”

Nc1ncnc2c1ncn2[C@@H]1O[C@H](COP(=O)(O)OP(=O)(O)OP(=O)(O)O)[C@@H](O)[C@H]1O [ATP, adenosine 5′-triphosphate]
non-specific amplification in PCR (agarose gel) (T. th. RecA [1]): non-specific amplification can be remarkably reduced | non-specific amplification in PCR (agarose gel) (T. th. RecA [2]): non-specific amplification was suppressed | non-specific amplification in PCR (acrylamide gel) (T. th. RecA [3]; 35 cycles, single primer sets 22-33, 1 and 2 (Lanes 1 to 14)): non-specific amplification was remarkably suppressed | specific amplification in multiplex PCR (acrylamide gel) (T. th. RecA [3]; all 14 primer sets in one reaction system (Lane 15)): the target sequences corresponding to each of the primer sets were specifically amplified | non-specific amplification in PCR (agarose gel) (T. th. RecA [4]; 400 μM ATP alone, without T. th. RecA, Lanes 43 to 49): non-specific amplification was not suppressed | suppression of non-specific amplification, comparison among the NTP and T. th. RecA combinations (T. th. RecA [4]; 400 μM GTP, ATP, UTP or CTP plus 0.4 μg T. th. RecA): suppressed non-specific amplification the most | non-specific amplification in PCR (agarose gel) (T. th. RecA [4]; 400 μM NTP plus 0.4 μg T. th. RecA, Primer Sets 1-6 and 8, compared with T. th. RecA only): non-specific amplification can be suppressed | non-specific amplification in PCR (agarose gel) (T. th. RecA [5]): non-specific amplification can be remarkably reduced | non-specific amplification in PCR (agarose gel) (T. th. RecA [6]; 0.4 mM ATP only, without T. th. RecA): production of non-specific amplification products was found | non-specific amplification in PCR (agarose gel) (T. th. RecA [6]; 0.4 mM ATP plus 0.4 μg T. th. RecA, Primer Sets 1-6 and 8): non-specific amplification was remarkably suppressed | non-specific amplification in PCR (agarose gel) (T. th. RecA [7]): non-specific amplification was remarkably suppressed | non-specific amplification in PCR (agarose gel) (T. th. RecA [8]): non-specific amplification can be suppressed
